Results as given in publication PMC3149978 (Clinical cancer research : an official journal of the …, 2011).
Like-named read-outs stand apart in the source and are kept apart here.

What was measured:
[1] = in vivo, po
[2] = human, in vivo
[3] = Extended pharmacokinetic sampling after the first dose
adult patients = conditions: cited from earlier work
[4] = tested on: Circulating endothelial cells (CECs) and endothelial progenitor cells (CEPs); assay: Circulating endothelial cells and progenitor cells by flow cytometry; format: in vivo, human; conditions: 11 patients with paired baseline and day 28 samples
clinical = conditions: human, in vivo, 20 mg/m2
[5] = tested on: stromal cell -derived factor-1 (SDF-1); assay: Plasma angiogenic biomarker ELISA, baseline vs day 28 of cycle 1; format: in vivo, human; conditions: baseline to day 28 of cycle 1; 12 patients
VEGF = assay: as above; format: in vivo, human; conditions: baseline to day 28 of cycle 1; 12 patients; p = 0.002
endoglin = assay: as above; format: in vivo, human; conditions: baseline to day 28 of cycle 1; 12 patients; p = 0.01
[6] = Steady-state trough plasma concentrations in cycle 1
[7] = tested on: placental growth factor (PlGF); assay: Plasma angiogenic biomarker ELISA, baseline vs day 28 of cycle 1; format: in vivo, human; conditions: baseline to day 28 of cycle 1; 12 patients; p = 0.0003
[8] = tested on: pediatric patients with refractory solid tumors; assay: Phase I dose escalation and toxicity evaluation; format: in vivo, human
monocyte counts = assay: Absolute monocyte counts, day 1 vs day 28; format: in vivo, human
refractory solid tumors = assay: Tumor response evaluated by RECIST; format: in vivo, human
[9] = dose level 15 g/m^2 (so in the source), N = 8
[10] = 17 patients with decreases, day 1 to day 28

SMILES: CCNCCNC(=O)c1c(C)[nH]c(/C=C2\C(=O)Nc3ccc(F)cc32)c1C [SU12662]
- steady state plasma concentrations reached by [1]: ≤ 7 days
- Tmax, Max [2]: 48.7 h
- Tmax, Median [2]: 8.0 h
- Tmax, Min [2]: 4.0 h
- Cmax ([2]; 20 mg/m2): 5.3 ng/mL
- Tmax ([2]; 20 mg/m2): 8.0 h
- AR (accumulation ratio = Css/C24h) ([3]; dose level 20 mg/m^2, N = 1): 4.2
- AR (accumulation ratio = Css/C24h), Max [3, 9]: 11.1
- AR (accumulation ratio = Css/C24h), Median [3, 9]: 6.4
- AR (accumulation ratio = Css/C24h), Min [3, 9]: 3.4

SMILES: CCN(CC)CCNC(=O)c1c(C)[nH]c(/C=C2\C(=O)Nc3ccc(F)cc32)c1C [Sunitinib]
- incidence of grade 3 or symptomatic congestive heart failure (adult patients; adult patients treated with sunitinib, ref [30]-[32]): 7-15%
- cases requiring dose reductions (adult patients; adults treated with sunitinib, ref [5], [6], [24], [25]): 11-50%
- change in totals and subsets of CECs and CEPs [4]: did not reliably change
- Cmax (clinical): 26.3 ng/mL
- AUC0-48h [2]: 0.698 ng·h/mL
- AUC0-48h, Median [2]: 0.492 ng·h/mL
- AUC0-∞ [2]: 0.879 ng·h/mL
- AUC0-∞, Median [2]: 0.747 ng·h/mL
- Tmax, Max [2]: 48.0 h
- Tmax, Min [2]: 2.0 h
- median peak plasma concentration [2]: 16.8 ng/mL
- peak plasma concentration, range [2]: 9.5 to 61.4 ng/mL
- time at which median peak plasma concentration was achieved [2]: 7 h
- change in plasma SDF-1 concentration [5]: did not change in a consistent manner
- change in plasma VEGF concentration (VEGF): increased significantly
- change in plasma endoglin concentration (endoglin): decreased significantly
- Css, Max ([6]; 15 mg/m^2 dose level): 57.9 ng/mL
- Css, Median ([6]; 15 mg/m^2 dose level): 28.0 ng/mL
- Css, Min ([6]; 15 mg/m^2 dose level): 13.2 ng/mL
- Css, Max ([6]; 20 mg/m^2 dose level): 65.0 ng/mL
- Css, Median ([6]; 20 mg/m^2 dose level): 36.5 ng/mL
- Css, Min ([6]; 20 mg/m^2 dose level): 28.2 ng/mL
- Day 21 Css sunitinib ([6]; Patient 1 with cardiac toxicity, 20 mg/m^2): 40 ng/mL
- Day 21 Css sunitinib ([6]; Patient 2 with cardiac toxicity, 15 mg/m^2): 18 ng/mL
- steady state plasma concentrations reached by ([6]; once daily oral dosing, cycle 1): ≤ 7 days
- change in plasma placental growth factor concentration [7]: increased significantly
- cardiac toxicity ([8]; Patient 2, 15 mg/m^2, Day 28, Cycle 1, doxorubicin 367 mg/m^2, prior cardiac radiation): Symptomatic diastolic and systolic dysfunction; transient ischemic changes on EKG
- maximum tolerated dose ([8]; children without prior anthracycline exposure or radiation therapy involving a cardiac field): 15 mg/m^2
- ALT elevation G1 ([8]; human, in vivo): 11%
- Hypophosphatemia G1 ([8]; human, in vivo): 11%
- Leukopenia G1 ([8]; human, in vivo): 40%
- Thrombocytopenia G1 ([8]; human, in vivo): 40%
- ALT elevation G1 ([8]; human, in vivo, 1 cycle): 17%
- AST elevation G1 ([8]; human, in vivo, 1 cycle): 33%
- Anemia G1 ([8]; human, in vivo, 1 cycle): 25%
- Anorexia G2 ([8]; human, in vivo, 1 cycle): 17%
- Diarrhea G1 ([8]; human, in vivo, 1 cycle): 33%
- Hypoalbuminemia G1 ([8]; human, in vivo, 1 cycle): 25%
- Hypocalcemia G1 ([8]; human, in vivo, 1 cycle): 25%
- patients who developed hypothyroidism (≤ grade 2) ([8]; human, in vivo, 1 cycle): Three of 23
- ALT elevation G2 ([8]; human, in vivo, 42 days): 11%
- Anorexia G1 ([8]; human, in vivo, 42 days): 11%
- CNS hemorrhage G4 ([8]; human, in vivo, 42 days): 11%
- Constipation G1 ([8]; human, in vivo, 42 days): 11%
- Cranial neuropathy G4 ([8]; human, in vivo, 42 days): 11%
- Decreased serum bicarbonate G1 ([8]; human, in vivo, 42 days): 11%
- Dehydration G1 ([8]; human, in vivo, 42 days): 11%
- Diarrhea G1 ([8]; human, in vivo, 42 days): 11%
- Diarrhea G2 ([8]; human, in vivo, 42 days): 11%
- Epistaxis G1 ([8]; human, in vivo, 42 days): 11%
- Eye swelling G1 ([8]; human, in vivo, 42 days): 11%
- Headache G1 ([8]; human, in vivo, 42 days): 11%
- Hypernatremia G1 ([8]; human, in vivo, 42 days): 11%
- Hypertension G1 ([8]; human, in vivo, 42 days): 11%
- Hyperuricemia G1 ([8]; human, in vivo, 42 days): 11%
- Hyperuricemia G4 ([8]; human, in vivo, 42 days): 11%
- Hypoalbuminemia G1 ([8]; human, in vivo, 42 days): 11%
- Hypomagnesemia G1 ([8]; human, in vivo, 42 days): 11%
- Hypothyroidism G1 ([8]; human, in vivo, 42 days): 11%
- Left ventricular systolic dysfunction G2 ([8]; human, in vivo, 42 days): 17%
- Leukopenia G1 ([8]; human, in vivo, 42 days): 33%
- Leukopenia G2 ([8]; human, in vivo, 42 days): 17%
- Leukopenia G3 ([8]; human, in vivo, 42 days): 25%
- Lipase elevation G1 ([8]; human, in vivo, 42 days): 11%
- Lymphopenia G1 ([8]; human, in vivo, 42 days): 17%
- Lymphopenia G3 ([8]; human, in vivo, 42 days): 17%
- Muscle or joint pain G1 ([8]; human, in vivo, 42 days): 11%
- Muscle or joint pain G2 ([8]; human, in vivo, 42 days): 11%
- Neutropenia G2 ([8]; human, in vivo, 42 days): 17%
- Neutropenia G3 ([8]; human, in vivo, 42 days): 33%
- Thrombocytopenia G1 ([8]; human, in vivo, 42 days): 42%
- Thrombocytopenia G2 ([8]; human, in vivo, 42 days): 25%
- Weight loss G2 ([8]; human, in vivo, 42 days): 17%
- cardiac dysfunction ([8]; in vivo): No cardiac dysfunction was observed
- changes in hair color and texture ([8]; in vivo): not reported
- growth plate thickening ([8]; in vivo): did not demonstrate any growth plate thickening
- hypertension ([8]; in vivo): rarely reported
- patients who developed hypothyroidism (≤ grade 2) ([8]; in vivo): Two patients
- maximum tolerated dose ([8]; patients without prior anthracycline or cardiac radiation exposure, once daily for 28 days followed by a 14-day break): 15 mg/m^2/day
- decrease in AMC, range (monocyte counts; [10]): 18 to 1253 µL⁻¹
- median decrease in AMC (monocyte counts; [10]): 117 µL⁻¹
- patients with decreases in absolute monocyte count (AMC) (monocyte counts; 18 patients with paired day 1 and day 28 counts): 17
- objective responses (refractory solid tumors; 17 patients evaluable for response): No objective responses were observed
- patients with best response of stable disease (refractory solid tumors; diffuse pontine glioma (2 cycles), osteosarcoma (4 cycles), epithelioid sarcoma (9 cycles), ganglioglioma (9 cycles)): Four patients
- 123I-meta-iodobenzylguanidine scan finding (refractory solid tumors; one patient with neuroblastoma, one cycle at 20 mg/m^2, persistent bone marrow disease): resolution of the disease noted at baseline
